Experiments:
[1] = tested on: green foxtail; experiment: Foliar spread test for upland field; assay type: in vivo, Setaria viridis; design: key: 0 = normal development, 5 = all killed (6 ranks vs. untreated); settings: foliar spray, 500 ppm, 3 weeks, glass house 25° C.
Experimental: (§1) The herbicidal effects are evaluated according to the following 6 ranks as compared with non-treated district. (0: normal development, 1: Less damaged, 2: Slightly damaged, 3: Moderately damaged, 4: Severely damaged, 5: All killed). Incidentally, “-” in the column means not investigated.
(§2) Wagner pots, each having an area of 1/5000 are, were packed with volcanic ash soil and then each seed of corn, soybean, cotton, wheat, solgum, sugar beat, Large crabgrass, barnyardgrjass, green foxtail, blackgrass, annual bluegrass, common lambsquarters, livid amaranth, velvetleaf, morning glory, Xanthium pensylvanicum and Cassia obtusifolia was planted, covered with soil and grown in a glass house at an average temperature of 25° C. for about 2 weeks.
(§3) Each wettable powder of the desired compounds (I) shown in Tables 1 to 21, 24, 25, 28 and 29 prepared in accordance with Example 2 was diluted to 500 ppm with water containing a surfactant (0.5%) and then uniformly sprayed on the above respective plants.
(§4) After these plants were controlled in a glass house at an average temperature of 25° C. for 3 weeks, the herbicidal effects thereof were investigated.
(§5) The herbicidal effects were evaluated according to the evaluation method described in the above (1).

[2] = tested on: livid amaranth; experiment: Soil treatment test for upland field; assay type: in vivo, Amaranthus lividus; design: key: 0 = normal development, 5 = all killed; settings: 500 g/ha, 3 weeks, glass house 25° C.
Experimental: as §1
(§6) Wagner pots, each having an area of 1/5000 are, were packed with Ube soil (alluvial soil), and then each seed of corn, soybean, cotton, wheat, solgum, sugar beat, Large crabgrass, barnyard grass, green foxtail, blackgrass, annual bluegrass, common lambsquarters, livid amaranth, velvetleaf, morning glory, common Cocklebur (Xanthium strumarium) and sicklepod (Cassia obtusifolia) were planted and covered with soil.
(§7) Each wettable powder of the desired compounds (I) shown in Tables 1 to 21, 24, 25, 28 and 29 prepared in accordance with Example 2 was diluted with water containing a surfactant (0.05%) and uniformly sprayed on the surface of each soil so that an effective concentration of the compound (I) in each herbicide became 500 g/ha.
(§8) These plants were controlled in a glass house at an average temperature of 25° C. for 3 weeks, and then herbicidal effects thereof were investigated.
as §5

[3] = tested on: common lambsquarters; experiment: Soil treatment test for upland field; assay type: in vivo, Chenopodium album; design: key: 0 = normal development, 5 = all killed; settings: 500 g/ha, 3 weeks, glass house 25° C.
Experimental: as §1, §6, §7, §8, §5

[4] = tested on: blackgrass; experiment: Soil treatment test for upland field; assay type: in vivo, Alopecurus aegualis; design: key: 0 = normal development, 5 = all killed; settings: 500 g/ha, 3 weeks, glass house 25° C.
Experimental: as §1, §6, §7, §8, §5

[5] = tested on: velvetleaf; experiment: Soil treatment test for upland field; assay type: in vivo, Abutilon theophrasti; design: key: 0 = normal development, 5 = all killed; settings: 500 g/ha, 3 weeks, glass house 25° C.
Experimental: as §1, §6, §7, §8, §5

[6] = tested on: common lambsquarters; experiment: Foliar spread test for upland field; assay type: in vivo, Chenopodium album; design: key: 0 = normal development, 5 = all killed (6 ranks vs. untreated); settings: foliar spray, 500 ppm, 3 weeks, glass house 25° C.
Experimental: as §1, §2, §3, §4, §5

[7] = tested on: morning glory; experiment: Foliar spread test for upland field; assay type: in vivo, Ipomoea spps.; design: key: 0 = normal development, 5 = all killed (6 ranks vs. untreated); settings: foliar spray, 500 ppm, 3 weeks, glass house 25° C.
Experimental: as §1, §2, §3, §4, §5

[8] = tested on: Large crabgrass; experiment: Foliar spread test for upland field; assay type: in vivo, Digitaria adscendens; design: key: 0 = normal development, 5 = all killed (6 ranks vs. untreated); settings: foliar spray, 500 ppm, 3 weeks, glass house 25° C.
Experimental: as §1, §2, §3, §4, §5

[9] = tested on: green foxtail; experiment: Soil treatment test for upland field; assay type: in vivo, Setaria viridis; design: key: 0 = normal development, 5 = all killed; settings: 500 g/ha, 3 weeks, glass house 25° C.
Experimental: as §1, §6, §7, §8, §5

[10] = tested on: annual bluegrass; experiment: Foliar spread test for upland field; assay type: in vivo, Poa annua; design: key: 0 = normal development, 5 = all killed (6 ranks vs. untreated); settings: foliar spray, 500 ppm, 3 weeks, glass house 25° C.
Experimental: as §1, §2, §3, §4, §5

[11] = tested on: livid amaranth; experiment: Foliar spread test for upland field; assay type: in vivo, Amaranthus lividus; design: key: 0 = normal development, 5 = all killed (6 ranks vs. untreated); settings: foliar spray, 500 ppm, 3 weeks, glass house 25° C.
Experimental: as §1, §2, §3, §4, §5

[12] = tested on: sugar beat; experiment: Foliar spread test for upland field; assay type: in vivo; design: key: 0 = normal development, 5 = all killed (6 ranks vs. untreated); settings: foliar spray, 500 ppm, 3 weeks, glass house 25° C.
Experimental: as §1, §2, §3, §4, §5

[13] = tested on: corn; experiment: Foliar spread test for upland field; assay type: in vivo; design: key: 0 = normal development, 5 = all killed (6 ranks vs. untreated); settings: foliar spray, 500 ppm, 3 weeks, glass house 25° C.
Experimental: as §1, §2, §3, §4, §5

[14] = tested on: cotton; experiment: Foliar spread test for upland field; assay type: in vivo; design: key: 0 = normal development, 5 = all killed (6 ranks vs. untreated); settings: foliar spray, 500 ppm, 3 weeks, glass house 25° C.
Experimental: as §1, §2, §3, §4, §5

[15] = tested on: solgum; experiment: Foliar spread test for upland field; assay type: in vivo; design: key: 0 = normal development, 5 = all killed (6 ranks vs. untreated); settings: foliar spray, 500 ppm, 3 weeks, glass house 25° C.
Experimental: as §1, §2, §3, §4, §5

[16] = tested on: soybean; experiment: Foliar spread test for upland field; assay type: in vivo; design: key: 0 = normal development, 5 = all killed (6 ranks vs. untreated); settings: foliar spray, 500 ppm, 3 weeks, glass house 25° C.
Experimental: as §1, §2, §3, §4, §5

[17] = tested on: wheat; experiment: Foliar spread test for upland field; assay type: in vivo; design: key: 0 = normal development, 5 = all killed (6 ranks vs. untreated); settings: foliar spray, 500 ppm, 3 weeks, glass house 25° C.
Experimental: as §1, §2, §3, §4, §5

[18] = tested on: barnyardgrjass; experiment: Foliar spread test for upland field; assay type: in vivo, Eschinochloa crusgalli; design: key: 0 = normal development, 5 = all killed (6 ranks vs. untreated); settings: foliar spray, 500 ppm, 3 weeks, glass house 25° C.
Experimental: as §1, §2, §3, §4, §5

[19] = tested on: Large crabgrass; experiment: Soil treatment test for upland field; assay type: in vivo, Digitaria adscendens; design: key: 0 = normal development, 5 = all killed; settings: 500 g/ha, 3 weeks, glass house 25° C.
Experimental: as §1, §6, §7, §8, §5

[20] = tested on: morning glory; experiment: Soil treatment test for upland field; assay type: in vivo, Ipomoea spps.; design: key: 0 = normal development, 5 = all killed; settings: 500 g/ha, 3 weeks, glass house 25° C.
Experimental: as §1, §6, §7, §8, §5

[21] = tested on: corn; experiment: Soil treatment test for upland field; assay type: in vivo; design: key: 0 = normal development, 5 = all killed; settings: 500 g/ha, 3 weeks, glass house 25° C.
Experimental: as §1, §6, §7, §8, §5

[22] = tested on: solgum; experiment: Soil treatment test for upland field; assay type: in vivo; design: key: 0 = normal development, 5 = all killed; settings: 500 g/ha, 3 weeks, glass house 25° C.
Experimental: as §1, §6, §7, §8, §5

[23] = tested on: wheat; experiment: Soil treatment test for upland field; assay type: in vivo; design: key: 0 = normal development, 5 = all killed; settings: 500 g/ha, 3 weeks, glass house 25° C.
Experimental: as §1, §6, §7, §8, §5

[24] = tested on: blackgrass; experiment: Foliar spread test for upland field; assay type: in vivo, Alopecurus aegualis; design: key: 0 = normal development, 5 = all killed (6 ranks vs. untreated); settings: foliar spray, 500 ppm, 3 weeks, glass house 25° C.
Experimental: as §1, §2, §3, §4, §5

[25] = tested on: barnyard grass; experiment: Soil treatment test for upland field; assay type: in vivo, Eschinochloa crusgalli; design: key: 0 = normal development, 5 = all killed; settings: 500 g/ha, 3 weeks, glass house 25° C.
Experimental: as §1, §6, §7, §8, §5

[26] = tested on: velvetleaf; experiment: Foliar spread test for upland field; assay type: in vivo, Abutilon theophrasti; design: key: 0 = normal development, 5 = all killed (6 ranks vs. untreated); settings: foliar spray, 500 ppm, 3 weeks, glass house 25° C.
Experimental: as §1, §2, §3, §4, §5

[27] = tested on: annual bluegrass; experiment: Soil treatment test for upland field; assay type: in vivo, Poa annua; design: key: 0 = normal development, 5 = all killed; settings: 500 g/ha, 3 weeks, glass house 25° C.
Experimental: as §1, §6, §7, §8, §5

[28] = tested on: sugar beat; experiment: Soil treatment test for upland field; assay type: in vivo; design: key: 0 = normal development, 5 = all killed; settings: 500 g/ha, 3 weeks, glass house 25° C.
Experimental: as §1, §6, §7, §8, §5

Compound	Effects Green foxtail [1]	Effects Livid amaranth [2]	Effects Common lambsquarters [3]	Effects Blackgrass [4]	Effects Common lambsquarters [6]	Effects Morning glory [7]	Effects Large crabgrass [8]	Effects Green foxtail [9]	Effects Annual bluegrass [10]	Effects Livid amaranth [11]	Effects Sugar beat [12]	Effects Corn [13]	Effects Sotton [14]	Effects Solgum [15]	Effects Soybean [16]	Effects Wheat [17]	Effects Barnyardgrass [18]	Effects Large crabgrass [19]	Effects Morning glory [20]	Effects Corn [21]	also measured
CCCC(=Cc1cccc(C(F)(F)F)c1)c1nc2cc(Cl)ccc2o1 [I-c-57]	5	5	5	5	5	5	4	5	4	4	3	2	4	2	5	2	3	5	3	2	Effects Velvetleaf [5]: 5; Effects Solgum [22]: 2; Effects Wheat [23]: 2; Effects Blackgrass [24]: 3; Effects Barnyardgrass [25]: 5; Effects Velvetleaf [26]: 3; Effects Annual bluegrass [27]: 5
CCCC(=Cc1cccc(C(F)(F)F)c1)c1nc2cc(F)c(F)cc2o1 [I-c-113]	5	5	5	5	5	5	4	5	4	5	5	2	5	3	5	2	3	5	4	2	Effects Velvetleaf [5]: 5; Effects Sugar beat [28]: 5; Effects Solgum [22]: 2; Effects Wheat [23]: 2; Effects Blackgrass [24]: 4; Effects Barnyardgrass [25]: 5; Effects Velvetleaf [26]: 4; Effects Annual bluegrass [27]: 5
CC(=Cc1cccc(C(F)(F)F)c1)c1nc2cc(Cl)ccc2o1 [I-c-53]	5	5	5	5	5	5	4	5	4	5	5	3	3	1	4	1	1	5	2	1	Effects Velvetleaf [5]: 1; Effects Sugar beat [28]: 5; Effects Solgum [22]: 0; Effects Wheat [23]: 1; Effects Blackgrass [24]: 4; Effects Barnyardgrass [25]: 5; Effects Velvetleaf [26]: 3; Effects Annual bluegrass [27]: 5
CCC(=Cc1cccc(C(F)(F)F)c1)c1nc2cc(Br)ccc2o1 [I-c-67]	4	5	5	5	5	5	4	5	4	5	4	3	5	3	5	2	3	5	4	2	Effects Velvetleaf [5]: 5; Effects Sugar beat [28]: 5; Effects Solgum [22]: 5; Effects Wheat [23]: 1; Effects Blackgrass [24]: 4; Effects Barnyardgrass [25]: 5; Effects Velvetleaf [26]: 4; Effects Annual bluegrass [27]: 5
CCCC(=Cc1cccc(C(F)(F)F)c1)c1nc2cc([N+](=O)[O-])ccc2o1 [I-c-74]	5	5	5	4	5	5	4	5	4	5	4	2	5	2	5	2	2	5	5	2	Effects Velvetleaf [5]: 5; Effects Sugar beat [28]: 5; Effects Solgum [22]: 2; Effects Wheat [23]: 1; Effects Blackgrass [24]: 2; Effects Barnyardgrass [25]: 5; Effects Velvetleaf [26]: 4; Effects Annual bluegrass [27]: 5
CC(=Cc1cccc(C(F)(F)F)c1)c1nc2cc(F)ccc2o1 [I-c-40]	2	5	5	4	4	3	3	5	2	4	4	2	1	1	4	1	1	5	3	0	Effects Sugar beat [28]: 1; Effects Solgum [22]: 2; Effects Wheat [23]: 0; Effects Blackgrass [24]: 2; Effects Barnyardgrass [25]: 5; Effects Velvetleaf [26]: 1; Effects Annual bluegrass [27]: 5

— patent US7402548B2, “Benzoxazole compounds, process for producing the same and herbicides” (Kyoyu Agri Co., Ltd., priority 2000, dated 2008)
